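1) Cells in 96-well plates. 2) Compound, 48 h, 5 concentrations. 3) Linear interpolation between surrounding doses. 4) Unreached endpoint = highest concentration. GI50 marks 50% less growth. TGI: total growth inhibition.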
How the values were obtained:
Assay in all cases: inhibition of tumour cell growth, NCI panel, 48 h
EKVX NSCLC = test system: EKVX NSCLC
A549 NSCLC = test system: A549 NSCLC
COLO 205 colon = test system: COLO 205 colon
SN12C renal = test system: SN12C renal
SNB-75 CNS = test system: SNB-75 CNS
NCI-H460 lung = test system: NCI-H460 lung
CAKI-1 renal = test system: CAKI-1 renal
HCT-116 colon = test system: HCT-116 colon
DU-145 prostate = test system: DU-145 prostate
PC-3 prostate = test system: PC-3 prostate

Compound	TGI (EKVX NSCLC)	TGI (A549 NSCLC)	TGI (COLO 205 colon)	TGI (SN12C renal)	TGI (SNB-75 CNS)	TGI (NCI-H460 lung)	TGI (CAKI-1 renal)	GI50 (EKVX NSCLC)	GI50 (A549 NSCLC)	GI50 (HCT-116 colon)	TGI (HCT-116 colon)	GI50 (DU-145 prostate)	TGI (DU-145 prostate)	GI50 (COLO 205 colon)	GI50 (SN12C renal)	GI50 (SNB-75 CNS)	GI50 (PC-3 prostate)	TGI (PC-3 prostate)	GI50 (NCI-H460 lung)	GI50 (CAKI-1 renal)
Nc1c(-c2cn(Cc3ccccc3)c3ccccc23)[n+]([O-])c2ccccc2[n+]1[O-]	> 100 µM	> 100 µM	> 100 µM	> 100 µM	61.6 µM	> 100 µM	68 µM	–	–	–	–	–	–	–	–	–	–	–	–	–
CCN(CC)CCNc1ccc(C)c2sc3cc(Cl)ccc3c(=O)c12	3.1 µM	3.28 µM	3.35 µM	3.44 µM	4.98 µM	3.54 µM	–	1470 nM	1760 nM	1650 nM	3.15 µM	1780 nM	3.17 µM	1.62 µM	1.68 µM	1710 nM	1540 nM	3.01 µM	1870 nM	–
CCOC(=O)C1=C(C)N=c2s/c(=C\c3ccccc3O)c(=O)n2C1c1ccc(OC)c2ccccc12 (stereo unspecified)	–	16.7 µM	> 100 µM	63.6 µM	6.11 µM	39.5 µM	25.9 µM	–	3880 nM	3260 nM	12.1 µM	8300 nM	32 µM	30.8 µM	17.6 µM	2010 nM	23300 nM	> 100 µM	8920 nM	10 µM
C=CC(=O)NCCSCCCOC1(C(=O)O)CC(O)C(NC(C)=O)C(C(O)C(O)CO)O1 (stereo unspecified)	–	> 100 µM	> 100 µM	> 100 µM	–	> 100 µM	–	–	–	–	> 100 µM	–	–	–	–	–	–	–	–	–
COc1ccc2c(c1)[n+]([O-])c(-c1ccc([N+](=O)[O-])cc1)c(N)[n+]2[O-]	> 100 µM	> 100 µM	> 100 µM	> 100 µM	> 100 µM	> 100 µM	> 100 µM	–	–	–	> 100 µM	–	–	–	–	–	–	–	–	–
O=S(=O)([O-])c1ccc(N=Cc2ccccc2[O-])cc1.O=S(=O)([O-])c1ccc(N=Cc2ccccc2[O-])cc1.[O]=[U+2]=[O]	> 100 µM	> 100 µM	> 100 µM	> 100 µM	> 100 µM	> 100 µM	–	> 100000 nM	> 100000 nM	20000 nM	> 100 µM	–	–	84.8 µM	> 100 µM	> 100000 nM	–	–	> 100000 nM	–
Cc1cc([N+](=O)[O-])ccc1Sc1c2ccccc2nc2cc(Cl)ccc12	> 100 µM	> 100 µM	> 100 µM	92.7 µM	89.7 µM	> 100 µM	84 µM	–	–	–	63.8 µM	–	–	–	–	–	–	–	–	–
COC(=O)/C(=N\NC(N)=O)C(C(=O)C(=O)Nc1ccccc1OC)c1nc2ccc([N+](=O)[O-])cc2[nH]c1=O (stereo unspecified)	> 100 µM	> 100 µM	–	> 100 µM	> 100 µM	> 100 µM	> 100 µM	–	–	–	> 100 µM	–	–	–	–	–	–	> 100 µM	–	–
COc1ccccc1NC(=O)C1=C(C)NC(C)=C(C(=O)Nc2ccccc2OC)C1C1=CC=COC1	> 100 µM	> 100 µM	> 100 µM	> 100 µM	> 100 µM	16.3 µM	56.8 µM	–	–	–	17.2 µM	–	–	–	–	–	–	–	–	–
CC(=O)Nc1ccc(/C=c2\sc3nnc(CCC(=O)Nc4ccccc4Cl)n3c2=O)cc1	> 100 µM	> 100 µM	–	> 100 µM	–	> 10 µM	> 100 µM	–	–	–	> 100 µM	–	–	–	–	–	–	–	–	–
COc1ccc(OC(C)=O)c2c1CCC=CC2=O	–	35.4 µM	23 µM	31 µM	29.3 µM	34.7 µM	–	–	–	–	34.3 µM	–	–	–	–	–	–	–	–	–
C=C=C(C(=O)OC)S(=O)c1ccccc1[N+](=O)[O-] (stereo unspecified)	> 100 µM	> 100 µM	> 100 µM	> 100 µM	> 100 µM	> 100 µM	> 100 µM	–	–	–	> 100 µM	–	–	–	–	–	–	–	–	–
COC(=O)C(Cc1nc2ccccc2[nH]c1=O)/C(=N\NC(C)(C)C)C(=O)Nc1c(C)cc(Br)cc1C (stereo unspecified)	> 100 µM	> 100 µM	36.5 µM	> 100 µM	–	> 100 µM	88.9 µM	–	–	–	37 µM	–	–	–	–	–	–	–	–	–
COC(=O)C(=O)C(C(=O)C(=O)Nc1cccc(C(C)=O)c1)c1nc2ccc([N+](=O)[O-])cc2[nH]c1=O (stereo unspecified)	> 100 µM	> 100 µM	> 100 µM	> 100 µM	–	> 100 µM	> 100 µM	–	–	–	> 100 µM	–	–	–	–	–	–	–	–	–
CN(C)c1ccc(/C=C/C(=O)[O-])cc1.CN(C)c1ccc(/C=C/C(=O)[O-])cc1.[Cu+2]	> 100 µM	> 100 µM	> 100 µM	> 100 µM	> 100 µM	> 100 µM	> 100 µM	–	–	–	> 100 µM	–	–	–	–	–	–	–	–	–
CCOC(=O)c1ccc(Nc2sc(C(=O)c3ccc(Br)cc3)c(N)c2C#N)cc1	–	> 100 µM	2.47 µM	> 100 µM	7.61 µM	> 100 µM	> 100 µM	–	1060 nM	732 nM	> 100 µM	1800 nM	> 100 µM	0.675 µM	4.12 µM	496 nM	797 nM	> 100 µM	924 nM	1.73 µM
CN(C)c1ccc(/C=C/c2ccnc3c(O)cccc23)cc1	–	> 100 µM	> 100 µM	> 100 µM	36.6 µM	> 100 µM	> 74.4 µM	–	376 nM	401 nM	> 100 µM	626 nM	> 100 µM	18.5 µM	0.529 µM	372 nM	383 nM	> 100 µM	363 nM	0.401 µM
O=C1CC(c2c(-c3ccccc3)[nH]c3ccccc23)C(=O)N1 (stereo unspecified)	> 100 µM	> 100 µM	–	–	> 100 µM	> 100 µM	> 100 µM	–	–	–	> 100 µM	–	–	–	–	–	–	–	–	–
COc1cccc2ccc(C(=O)c3ccccc3)nc12	> 100 µM	> 100 µM	> 100 µM	> 100 µM	> 100 µM	–	> 100 µM	–	–	–	> 100 µM	–	–	–	–	–	–	–	–	–
CC1=Nc2ccccc2NC(c2ccoc2)C1 (stereo unspecified)	> 100 µM	> 100 µM	> 100 µM	> 100 µM	> 100 µM	> 100 µM	> 100 µM	–	–	–	> 100 µM	–	–	–	–	–	–	–	–	–
C[n+]1c(/C=C/c2c[nH]c3ccccc23)ccc2ccccc21	–	26 µM	22.2 µM	21 µM	27.4 µM	12.9 µM	34.9 µM	–	5380 nM	4650 nM	22.5 µM	10100 nM	22.7 µM	5.44 µM	5.68 µM	14100 nM	9740 nM	25.8 µM	3140 nM	14.6 µM

Source: PubChem BioAssay (NCI)
